Literature values in publication PMC7968864, “Theory of Allosteric Regulation in Hsp70 Molecular Chaperones” (QRB Discovery, 2020).

How the values were obtained:
[1] = test system: I483D DnaK; design: method as in Wang et al., 2020; settings: fluorescein-labelled NR peptide 10 nM, fluorescence anisotropy, ref Wang et al., 2020
[2] = test system: WT DnaK; settings: fluorescence anisotropy, ref Wang et al., 2020

NRLLLTG [fluorescein-labelled NR peptide]
peptide binding in ADP (in words) [1]: indistinguishable from that to WT when in ADP
peptide binding in ATP versus ADP (in words) [2]: much reduced in the presence of ATP as compared to when with ADP
